One experiment deals with U87-MG. As to the kind of experiment: Cellular proliferation assay (Alamar blue), U87-MG. Format: cell-based. The settings on record: Homo sapiens, U-87 MG; 10% FCS; 72 hours with compound; Alamar blue 6 h; read-out: U87-MG (cellular proliferation assay, Table 4) (converted). A digest of the protocol: (§1)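 Growth inhibition measured after 72 h incubation with compound, following 24 h pre-culture at 37° C, 5% CO2 with 10% FCS. Resazurin-based read-out at 544/590 nm after 4 h (HCT-116), 6 h (U87-MG) or 24 h (A2780, MDA-MB-231); results relative to control.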
For orientation: Resazurin is reduced to fluorescent resorufin, in cell work by metabolically active cells.

The next experiment deals with PLK3 (h) (Homo sapiens, UniProt Q9H4B4). The experiment in a line: PLK3 human kinase inhibition, SPA. As to conditions: read-out: PLK3 pIC50 (converted). Format: biochemical. A digest of the protocol: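 Radiometric scintillation proximity format at pH 8.0 (Hepes, MnCl2, DTT). The 2 μM biotin-peptide substrate is phosphorylated by PLK3 (h) (30 μg/ml) using 0.1 μM ATP traced with 33P, for 20 min at room temperature. EDTA stop; phosphopeptide captured on streptavidin beads and imaged.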

For the next experiment, the target named is GSK3β (h) (Homo sapiens, UniProt P49841). The experiment in a line: GSK-3β human kinase inhibition, SPA. The settings on record: read-out: GSK3b pIC50 (converted). Format: biochemical. A digest of the protocol:
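Radiometric: 33P-labelled peptide captured on streptavidin SPA beads after EDTA stop and imaged on Leadseeker. Reaction ran 1 h at RT, 1 μM cold ATP with 2 nM [γ-33P]ATP, 1 μM biotin-peptide substrate, human GSK3β 1 μg/ml, pH 7.4 Tris buffer.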

The subject of another experiment is HCT-116. The experiment in a line: Cellular proliferation assay (Alamar blue), HCT-116. In kind it is cell-based. As to conditions: Homo sapiens, 10% FCS, 72 hours with compound, Alamar blue 4 h. A digest of the protocol: as §1
The next experiment has as its target PLK2 (h) (Homo sapiens, UniProt Q9NYY3). The experiment in a line: PLK2 human kinase inhibition, SPA. In kind it is biochemical. The settings on record: read-out: PLK2 pIC50 (converted). In a few lines:
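33P incorporation into a biotinylated peptide (2 μM) was captured on streptavidin PVT beads and imaged on Leadseeker. Enzyme at 30 μg/ml, ATP 0.1 μM with 2 nM [γ-33P]ATP, Hepes pH 8.0 with MnCl2 and DTT. Incubation was 20 min at room temperature.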

Another experiment has as its system H1299. As to the kind of experiment: Cellular proliferation assay (Alamar blue), H1299. In kind it is cell-based. The settings on record: Homo sapiens, NCI-H1299; 10% FCS; 72 hours with compound; Alamar blue 4 h. In a few lines: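 This proliferation assay on NCI-H1299 cells used an initial 24-hour compound-free incubation after seeding, followed by 72 hours of compound treatment with 10% FCS serum at 37° C. and 5% (v/v) CO2. Viable cells were quantified by a 4 h Alamar blue incubation and fluorescent plate reading at 544 nm/590 nm, and effects were expressed relative to control cells.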

For a further experiment, the target named is CDK4/CyclinD1 (h) (Homo sapiens, UniProt P11802). As to the kind of experiment: CDK4/CyclinD1 human kinase inhibition, SPA with GST-pRb substrate. In kind it is biochemical. The settings on record: read-out: CDK4 pIC50 (converted). In a few lines: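 Scintillation proximity format: after EDTA/Triton stop containing glutathione SPA beads, 33P incorporation was counted. The reaction ran 60 min at room temperature in Hepes pH 7.5 with NaF, MgCl2, DTT, using 2.5 μg/ml human CDK4/CyclinD1, 40 μg/ml GST-pRb substrate and 2 nM [γ-33P]ATP.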

A further experiment relates to MDA-MB-231. The experiment in a line: Cellular proliferation assay (Alamar blue), MDA-MB-231. Format: cell-based. As to conditions: Homo sapiens, 10% FCS, 72 hours with compound, Alamar blue 24 h, read-out: MDA/MB231 (cellular proliferation assay, Table 4) (converted). A digest of the protocol: as §1
The next experiment has as its target CDK1/CyclinB (h) (Homo sapiens, UniProt P06493). The experiment in a line: CDK1/CyclinB human kinase inhibition, Invitrogen's FRET assay (Z'lyte). The settings on record: read-out: CDK1 pIC50 (converted). In kind it is biochemical. In a few lines: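 Read-out is the 460 nm/538 nm emission ratio (390 nm excitation) after a 60 min protease development step. Before that, 10 μM ATP and 2 μM Z'lyte Ser/Thr peptide 12 react 60 min at room temperature with 0.2 μg/ml human CDK1/CyclinB in Hepes pH 7.5 containing MgCl2, EGTA and Brij-35.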

A further experiment deals with A2780. The experiment in a line: Cellular proliferation assay (Alamar blue), A2780. In kind it is cell-based. As to conditions: Homo sapiens, 10% FCS, 72 hours with compound, Alamar blue 24 h, read-out: A2780 (cellular proliferation assay, Table 4) (converted). In a few lines:
as §1

This is an account of results in patent publication US8609836B2, “4-aryl-2-anilino-pyrimidines” (Janssen Pharmaceutica NV, priority 2008, dated 2013).

PLK2 (h), sequence (Q9NYY3 whole entry): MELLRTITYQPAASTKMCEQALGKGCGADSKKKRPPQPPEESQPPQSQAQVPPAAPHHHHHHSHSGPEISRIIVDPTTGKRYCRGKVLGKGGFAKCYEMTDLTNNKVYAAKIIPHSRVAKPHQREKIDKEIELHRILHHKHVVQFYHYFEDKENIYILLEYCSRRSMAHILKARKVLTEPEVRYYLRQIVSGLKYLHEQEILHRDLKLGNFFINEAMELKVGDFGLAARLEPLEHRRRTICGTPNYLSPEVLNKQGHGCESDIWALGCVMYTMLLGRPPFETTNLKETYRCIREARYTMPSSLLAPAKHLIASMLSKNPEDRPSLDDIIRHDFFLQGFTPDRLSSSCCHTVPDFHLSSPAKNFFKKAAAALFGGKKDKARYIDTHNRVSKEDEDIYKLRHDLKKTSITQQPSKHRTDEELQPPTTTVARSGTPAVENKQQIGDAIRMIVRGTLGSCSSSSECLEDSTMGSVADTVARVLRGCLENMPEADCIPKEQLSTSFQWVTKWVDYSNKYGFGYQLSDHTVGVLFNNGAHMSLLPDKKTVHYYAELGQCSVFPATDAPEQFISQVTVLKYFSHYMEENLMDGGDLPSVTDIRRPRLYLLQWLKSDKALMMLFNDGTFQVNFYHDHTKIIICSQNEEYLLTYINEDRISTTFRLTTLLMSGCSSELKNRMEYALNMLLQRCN
CDK4/CyclinD1 (h), sequence (P11802 whole entry): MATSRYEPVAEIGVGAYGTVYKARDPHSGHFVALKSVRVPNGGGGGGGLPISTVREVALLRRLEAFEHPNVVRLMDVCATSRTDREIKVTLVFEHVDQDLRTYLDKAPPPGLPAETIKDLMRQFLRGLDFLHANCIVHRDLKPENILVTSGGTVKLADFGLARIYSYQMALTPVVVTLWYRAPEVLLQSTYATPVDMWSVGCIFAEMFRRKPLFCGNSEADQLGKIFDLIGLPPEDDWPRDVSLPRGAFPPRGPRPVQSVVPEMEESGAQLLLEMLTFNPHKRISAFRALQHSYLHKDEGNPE
CDK4/CyclinD1 (h), sequence (P24385 whole entry partner): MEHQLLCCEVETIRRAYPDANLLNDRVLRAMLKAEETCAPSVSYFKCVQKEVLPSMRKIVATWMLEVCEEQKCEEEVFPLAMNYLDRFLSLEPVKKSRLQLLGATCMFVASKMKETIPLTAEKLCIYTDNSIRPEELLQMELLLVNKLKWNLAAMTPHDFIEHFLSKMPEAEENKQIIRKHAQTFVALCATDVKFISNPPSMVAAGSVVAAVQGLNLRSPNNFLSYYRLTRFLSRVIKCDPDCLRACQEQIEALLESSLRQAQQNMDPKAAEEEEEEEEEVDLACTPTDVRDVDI
CDK1/CyclinB (h), sequence (P06493 whole entry): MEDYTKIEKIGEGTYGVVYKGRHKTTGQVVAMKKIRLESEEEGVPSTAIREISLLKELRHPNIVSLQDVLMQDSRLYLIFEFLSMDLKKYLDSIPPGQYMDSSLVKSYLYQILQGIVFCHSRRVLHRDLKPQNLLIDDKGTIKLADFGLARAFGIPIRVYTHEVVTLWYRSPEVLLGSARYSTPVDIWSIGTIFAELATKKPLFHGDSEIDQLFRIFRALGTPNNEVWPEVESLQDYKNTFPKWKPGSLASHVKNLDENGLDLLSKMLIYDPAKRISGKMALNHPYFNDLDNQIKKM
CDK1/CyclinB (h), sequence (P14635 whole entry partner): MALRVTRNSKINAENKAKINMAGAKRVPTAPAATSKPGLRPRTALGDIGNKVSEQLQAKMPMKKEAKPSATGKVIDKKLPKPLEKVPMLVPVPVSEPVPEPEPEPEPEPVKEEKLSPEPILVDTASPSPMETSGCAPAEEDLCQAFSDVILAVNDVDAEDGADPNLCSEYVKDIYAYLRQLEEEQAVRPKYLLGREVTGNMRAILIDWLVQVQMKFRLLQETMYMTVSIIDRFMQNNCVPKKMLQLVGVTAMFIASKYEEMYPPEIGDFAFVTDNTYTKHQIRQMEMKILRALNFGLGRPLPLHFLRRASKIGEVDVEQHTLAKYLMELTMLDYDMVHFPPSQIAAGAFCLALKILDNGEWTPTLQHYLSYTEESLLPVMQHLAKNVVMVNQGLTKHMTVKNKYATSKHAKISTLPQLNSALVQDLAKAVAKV
PLK3 (h), sequence (Q9H4B4 whole entry): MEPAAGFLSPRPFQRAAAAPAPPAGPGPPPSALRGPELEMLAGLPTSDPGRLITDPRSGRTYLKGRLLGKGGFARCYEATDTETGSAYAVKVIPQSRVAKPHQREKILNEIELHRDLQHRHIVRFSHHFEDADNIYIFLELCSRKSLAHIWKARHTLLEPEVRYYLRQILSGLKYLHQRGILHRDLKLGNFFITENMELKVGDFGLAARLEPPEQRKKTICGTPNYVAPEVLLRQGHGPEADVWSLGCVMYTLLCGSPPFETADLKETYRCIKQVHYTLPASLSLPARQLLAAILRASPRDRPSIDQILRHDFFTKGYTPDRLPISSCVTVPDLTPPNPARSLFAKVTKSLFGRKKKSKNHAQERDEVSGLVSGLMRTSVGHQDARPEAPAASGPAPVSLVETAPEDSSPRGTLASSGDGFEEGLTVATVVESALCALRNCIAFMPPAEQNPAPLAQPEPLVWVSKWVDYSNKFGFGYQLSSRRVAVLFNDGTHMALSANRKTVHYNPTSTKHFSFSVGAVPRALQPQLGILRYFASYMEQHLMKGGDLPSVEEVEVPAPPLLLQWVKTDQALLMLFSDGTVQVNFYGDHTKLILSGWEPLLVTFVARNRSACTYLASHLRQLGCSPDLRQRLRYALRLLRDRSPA
GSK3β (h), sequence (P49841 whole entry): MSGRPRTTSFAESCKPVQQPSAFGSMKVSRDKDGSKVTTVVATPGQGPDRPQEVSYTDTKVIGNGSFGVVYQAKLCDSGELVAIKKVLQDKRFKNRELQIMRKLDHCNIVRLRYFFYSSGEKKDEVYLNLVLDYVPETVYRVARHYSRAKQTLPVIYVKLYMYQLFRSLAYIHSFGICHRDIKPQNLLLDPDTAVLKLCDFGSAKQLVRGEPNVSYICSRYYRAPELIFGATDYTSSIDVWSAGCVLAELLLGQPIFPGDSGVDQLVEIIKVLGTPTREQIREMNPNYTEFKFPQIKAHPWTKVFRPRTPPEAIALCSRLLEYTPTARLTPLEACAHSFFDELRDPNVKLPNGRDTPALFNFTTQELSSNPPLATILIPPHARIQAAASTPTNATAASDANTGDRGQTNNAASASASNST

Regarding `COc1ccc2cc1CN(C)CCCNC(=O)[C@@H]1CCCN1Cc1cc(NCCc3ccccc3)cc(c1)Nc1nccc-2n1` [Compound 167], the IC50 with U87-MG was 3.72 µM; at PLK3 (h), > 10 µM; at GSK3β (h), > 10 µM; with HCT-116, 2.24 µM; on PLK2 (h) it was > 10 µM; in the experiment with H1299, > 10 µM. Further, the IC50 on CDK4/CyclinD1 (h) is > 10 µM; with MDA-MB-231 it was 6.46 µM; at CDK1/CyclinB (h), > 10 µM; with A2780 it was 2.75 µM.
For the compound `O=C1NCc2cccc(c2)-c2ccnc(n2)Nc2ccc(N3CCOCC3)c(c2)CN2C[C@@H](O)C[C@@H]12` [Compound 27], the IC50 in the experiment on U87-MG is 5.37 µM; at PLK3 (h), > 10 µM; at GSK3β (h), 0.141 µM; in the experiment on HCT-116 it was 0.891 µM; at PLK2 (h), > 10 µM; with H1299, 2.95 µM. The IC50 is 1.78 µM on CDK4/CyclinD1 (h), 3.8 µM in the experiment with MDA-MB-231, 1.91 µM at CDK1/CyclinB (h) and 0.661 µM in the experiment on A2780.
Turning to `CN(C)CCNC(=O)c1cc2cc(c1)Nc1nccc(n1)-c1cccc(c1)CNC(=O)[C@@H]1CCCN1C2` [Compound 39], the IC50 was 1.07 µM in the experiment on U87-MG; > 10 µM on PLK3 (h); 0.363 µM at GSK3β (h); 1.23 µM with HCT-116; > 10 µM at PLK2 (h); > 10 µM in the experiment on H1299. Besides, the IC50 was 1.12 µM on CDK4/CyclinD1 (h), 6.76 µM in the experiment on MDA-MB-231, 1.45 µM on CDK1/CyclinB (h) and 2.09 µM in the experiment with A2780.
As for `COc1cc2cc(c1)Nc1nccc(n1)-c1ccc(cc1)CN(C)CCCNC(=O)C1CCN(CC1)C2` [Compound 66], the IC50 in the experiment with U87-MG is 2.88 µM; at PLK3 (h), > 10 µM; at GSK3β (h), 1.07 µM; with HCT-116, 1.02 µM; on PLK2 (h) it was > 3.02 µM; in the experiment with H1299 it was > 10 µM. Moreover, the IC50 is > 10 µM on CDK4/CyclinD1 (h), 8.32 µM in the experiment on MDA-MB-231, > 10 µM on CDK1/CyclinB (h) and 6.31 µM with A2780.
Turning to `CN1CCN(C(=O)c2cc3cc(c2)Nc2nccc(n2)-c2cccc(c2)CNC(=O)[C@@H]2CCCN2C3)CC1` [Compound 34], the IC50 was 8.71 µM in the experiment on U87-MG; > 10 µM on PLK3 (h); 0.525 µM at GSK3β (h); 5.89 µM in the experiment with HCT-116; > 10 µM on PLK2 (h); 6.17 µM in the experiment with H1299. The IC50 was 8.71 µM on CDK4/CyclinD1 (h), > 10 µM in the experiment on MDA-MB-231, 1.23 µM at CDK1/CyclinB (h) and > 10 µM with A2780.
In the case of `O=C1CN2CCN(CC2)Cc2ccc(cc2)Nc2nccc(n2)-c2cccc(c2)CN1` [Compound 193], the IC50 with U87-MG was > 10 µM; on PLK3 (h), > 10 µM; at GSK3β (h), 3.24 µM; with HCT-116, > 10 µM; at PLK2 (h) it was > 10 µM; in the experiment with H1299, > 10 µM. The IC50 on CDK4/CyclinD1 (h) was 4.37 µM; in the experiment on MDA-MB-231, > 10 µM; at CDK1/CyclinB (h) it was > 10 µM; in the experiment with A2780, > 10 µM.
`CN1CCC(NC(=O)c2cc3cc(c2)Nc2nccc(n2)-c2cccc(c2)CNC(=O)[C@@H]2CCCN2C3)CC1` [Compound 38]: the IC50 is 1 µM in the experiment with U87-MG; > 3.02 µM on PLK3 (h); 0.186 µM on GSK3β (h); 1.23 µM with HCT-116; > 10 µM on PLK2 (h); > 10 µM in the experiment on H1299. The IC50 on CDK4/CyclinD1 (h) is 3.47 µM; with MDA-MB-231 it was 6.31 µM; at CDK1/CyclinB (h), 1.66 µM; in the experiment on A2780 it was 2.69 µM.
For `COc1ccc2cc1CN(C)CCNC(=O)[C@H](CO)NCc1cc(Br)cc(c1)Nc1nccc-2n1` [Compound 119], the IC50 in the experiment on U87-MG is 8.71 µM; on PLK3 (h), > 10 µM; on GSK3β (h), 6.03 µM; with HCT-116, 2.29 µM; on PLK2 (h) it was > 10 µM; in the experiment on H1299 it was > 10 µM. Moreover, the IC50 at CDK4/CyclinD1 (h), with MDA-MB-231, at CDK1/CyclinB (h) and with A2780 was > 10 µM in each case.
Take `COc1cc2cc(c1)Nc1nccc(n1)-c1ccc(cc1)CN(C)CCNC(=O)[C@H](CO)NC2` [Compound 109]: the IC50 in the experiment on U87-MG is 5.62 µM; on PLK3 (h), > 10 µM; at GSK3β (h) it was 4.79 µM; in the experiment with HCT-116 it was 2.69 µM; at PLK2 (h), > 10 µM; in the experiment with H1299, > 10 µM. Further, the IC50 on CDK4/CyclinD1 (h), in the experiment with MDA-MB-231, at CDK1/CyclinB (h) and with A2780 was > 10 µM throughout.
In the case of `O=C1NCc2ccc(cc2)-c2ccnc(n2)Nc2ccc(N3CCOCC3)c(c2)CN2CCC1CC2` [Compound 12], the IC50 is 0.955 µM with U87-MG; > 10 µM on PLK3 (h); ~10.5 µM on GSK3β (h); 3.8 µM with HCT-116; > 10 µM at PLK2 (h); 1.58 µM with H1299. Further, the IC50 at CDK4/CyclinD1 (h) is 1.58 µM; in the experiment with MDA-MB-231, 9.33 µM; at CDK1/CyclinB (h), > 10 µM; with A2780 it was 1.74 µM.
Turning to `COc1ccc2cc1CN(C)CCNC(=O)[C@H](CO)NCc1cc(cc(N3CCOCC3)c1)Nc1nccc-2n1` [Compound 105], the IC50 in the experiment on U87-MG was > 10 µM; at PLK3 (h), > 10 µM; at GSK3β (h) it was > 10 µM; with HCT-116, > 10 µM; on PLK2 (h), > 3.02 µM; in the experiment with H1299, > 10 µM. The IC50 on CDK4/CyclinD1 (h), with MDA-MB-231, on CDK1/CyclinB (h) and in the experiment with A2780 was > 10 µM throughout.
For the compound `O=C1NCCOc2cccc(c2)-c2ccnc(n2)Nc2ccc(N3CCOCC3)c(c2)CN2CCC1CC2` [Compound 94], the IC50 in the experiment with U87-MG is > 10 µM; on PLK3 (h) it was > 10 µM; at GSK3β (h), 2.95 µM; in the experiment with HCT-116, 9.12 µM; at PLK2 (h), > 10 µM; with H1299, 8.13 µM. In addition, the IC50 was 3.63 µM at CDK4/CyclinD1 (h), > 10 µM in the experiment with MDA-MB-231, > 10 µM at CDK1/CyclinB (h) and > 10 µM in the experiment with A2780.
On to `COc1cc2cc(c1)Nc1nccc(n1)-c1ccc(OC)c(c1)CN(C)CCCNC(=O)CN1CCN(CC1)C2` [Compound 140], for which the IC50 was 4.07 µM in the experiment on U87-MG; > 10 µM at PLK3 (h); 7.41 µM at GSK3β (h); 1.55 µM with HCT-116; > 10 µM at PLK2 (h); > 10 µM in the experiment on H1299. The IC50 at CDK4/CyclinD1 (h), in the experiment with MDA-MB-231, at CDK1/CyclinB (h) and in the experiment with A2780 was > 10 µM in each case.
On to `O=C1NCc2cc(ccc2N2CCOCC2)Nc2nccc(n2)-c2cccc(c2)CCN2CCC[C@@H]12` [Compound 43], for which the IC50 with U87-MG is > 10 µM; on PLK3 (h), > 10 µM; at GSK3β (h) it was 0.186 µM; in the experiment on HCT-116, 1.78 µM; at PLK2 (h) it was > 10 µM; in the experiment on H1299 it was > 10 µM. Besides, the IC50 was 0.427 µM on CDK4/CyclinD1 (h), 5.62 µM in the experiment on MDA-MB-231, 0.427 µM at CDK1/CyclinB (h) and 2.51 µM in the experiment on A2780.
